Tested on: HBV
Assay: HBV replication inhibition assay (BDNA assay)
Type: cell-based
Conditions: Hepatitis B virus, HepG2.2.15, 144 h, HepG2.2.15 cells, incubated with compound for 6 days, encapsidated HBV DNA from supernatant detected by branched DNA QuantiGene assay
Description: HBV replication inhibition by the disclosed compounds were determined in cells infected or transfected with HBV or cells with stably integrated HBV, such as HepG2.2.15 cells (Sells et al. 1987). In this example, HepG2.2.15 cells were maintained in cell culture medium containing 10% fetal bovine serum (FBS), Geneticin, L-glutamine, penicillin and streptomycin. HepG2.2.15 cells were seeded in 96-well plates at a density of 40,000 cells/well and were treated with serially diluted compounds at a final DMSO concentration of 0.5% either alone or in combination by adding drugs in a checker box format. Cells were incubated with compounds for three days, after which medium was removed and fresh medium containing compounds was added to cells and incubated for another three days. At day 6, supernatant was removed and treated with DNase at 37° C. for 60 minutes, followed by enzyme inactivation at 75° C. for 15 minutes. Encapsidated HBV DNA was released from the virions and covalently linked HBV polymerase by incubating in lysis buffer (Affymetrix QS0010) containing 2.5 μg proteinase K at 50° C. for 40 minutes. HBV DNA was denatured by addition of 0.2 M NaOH and detected using a branched DNA (BDNA) QuantiGene assay kit according to manufacturer recommendation (Affymetrix). HBV DNA levels were also quantified using qPCR, based on amplification of encapsidated HBV DNA extraction with QuickExtraction Solution (Epicentre Biotechnologies) and amplification of HBV DNA using HBV specific PCR probes that can hybridize to HBV DNA and a fluorescently labeled probe for quantitation. In addition, cell viability of HepG2.2.15 cells incubated with test compounds alone or in combination was determined by using CellTitre-Glo reagent according to the manufacturer protocol (Promega). The mean background signal from wells containing only culture medium was subtracted from all other samples, and percent inhibition at each compound concentration was calculated by normalizing to signals from HepG2.2.15 cells treated with 0.5% DMSO using equation E1.
where DMSOave is the mean signal calculated from the wells that were treated with DMSO control (0% inhibition control) and Xi is the signal measured from the individual wells. EC50 values, effective concentrations that achieved 50% inhibitory effect, were determined by non-linear fitting using Graphpad Prism software (San Diego, Calif.) and equation E2.
where Y represents percent inhibition values and X represents the logarithm of compound concentrations.
Selected disclosed compounds were assayed in the HBV replication assay (BDNA assay), as described above, and a representative group of these active compounds is shown in Table 3.

SMILES: O=C(Nc1ccc(F)c(C(F)(F)F)c1)N1CCc2nn3c(c2C1)-c1ncccc1CCC3 [Example 28, N-(4-Fluoro-3-(trifluoromethyl)phenyl)-6,7,10,11-tetrahydro-5H-pyrido[2,3-c]pyrido[4′,3′:3,4]pyrazolo[1,5-a]azepine-12(13H)-carboxamide]
- EC50: 1800 nM

SMILES: Cn1cc2c(n1)-c1c3c(nn1CCC2)CCN(C(=O)Nc1ccc(F)c(Cl)c1)C3 [Example 29, N-(3-Chloro-4-fluorophenyl)-2-methyl-4,5,6,9,10,12-hexahydropyrazolo[3,4-c]pyrido[4′,3′:3,4]pyrazolo[1,5-a]azepine-11(2H)-carboxamide]
- EC50: 3100 nM

SMILES: Cn1ncc2c1-c1c3c(nn1CCC2)CCN(C(=O)Nc1ccc(F)c(Cl)c1)C3 [Example 30, N-(3-Chloro-4-fluorophenyl)-1-methyl-4,5,6,9,10,12-hexahydropyrazolo[3,4-c]pyrido[4′3′:3,4]pyrazolo[1,5-a]azepine-11(1H)-carboxamide]
- EC50: 3400 nM

SMILES: O=C(Nc1ccc(F)c(Cl)c1)N1CCc2nn3c(c2C1)-c1nocc1CCC3 [Example 31, N-(3-Chloro-4-fluorophenyl)-5,6,9,10-tetrahydro-4H-isoxazolo[3,4-c]pyrido[4′,3′:3,4]pyrazolo[1,5-a]azepine-11(12H)-carboxamide]
- EC50: 9 nM

SMILES: O=C(Nc1ccc(F)c(Cl)c1)N1CCc2nn3c(c2C1)-c1oncc1CCC3 [Example 32, N-(3-Chloro-4-fluorophenyl)-5,6,9,10-tetrahydro-4H-isoxazolo[5,4-c]pyrido[4′,3′:3,4]pyrazolo[1,5-a]azepine-11(12H)-carboxamide]
- EC50: 12 nM

SMILES: N#Cc1cc(NC(=O)N2CCn3nc4c(c3C2)-c2oncc2CCC4)ccc1F [Example 33, N-(3-Cyano-4-fluorophenyl)-5,6,9,10-tetrahydro-4H-isoxazolo[5″,4″:3′,4′]-cyclohepta[1′,2′:3,4]pyrazolo[1,5-a]pyrazine-11(12H)-carboxamide]
- EC50: 790 nM

SMILES: O=C(Nc1ccc(F)c(C(F)(F)F)c1)N1CCn2nc3c(c2C1)-c1oncc1CCC3 [Example 34]
- EC50: 440 nM

SMILES: N#Cc1cc(NC(=O)N2CCn3nc4c(c3C2)-c2nocc2CCC4)ccc1F [Example 35, N-(3-Cyano-4-fluorophenyl)-5,6,9,10-tetrahydro-4H-isoxazolo[3″,4″:3′,4′]-cyclohepta[1′,2′:3,4]pyrazolo[1,5-a]pyrazine-11(12H)-carboxamide]
- EC50: 170 nM

SMILES: O=C(Nc1ccc(F)c(C(F)(F)F)c1)N1CCn2nc3c(c2C1)-c1nocc1CCC3 [Example 36, N-(4-Fluoro-3-(trifluoromethyl)phenyl)-5,6,9,10-tetrahydro-4H-isoxazolo[3″,4″:3′,4′]cyclohepta[1′,2′:3,4]pyrazolo[1,5-a]pyrazine-11(12H)-carboxamide]
- EC50: 180 nM
